ChEMBL document CHEMBL4265887 (Bioorg Med Chem Lett, 2018)
Activity calls are given as the source filed them. The calls are words filed in the database; no cut-off is given here.

Experiments:
[1] = biological target: RAC-alpha serine/threonine-protein kinase (Homo sapiens) (UniProt P31749); assay: Inhibition of AKT1 (unknown origin) at 10 uM
HT-29 [2] = assay: Synergistic cytotoxicity against human HT-29 cells assessed as reduction in cell viability by measuring combination index at 1:1 compound to erlotinib ratio after 48 hrs by MTT assay; format: functional
HT-29 [3] = assay: Synergistic cytotoxicity against human HT-29 cells assessed as reduction in cell viability by measuring combination index at 1:1 compound to crizotinib ratio after 48 hrs by MTT assay; format: functional
[4] = biological target: Serine/threonine-protein kinase PAK 4 (Homo sapiens) (UniProt O96013); assay: Inhibition of PAK4 (unknown origin) at 10 uM
[5] = biological target: Tyrosine-protein kinase CSK (Homo sapiens) (UniProt P41240); assay: Inhibition of CSK (unknown origin) at 10 uM
[6] = biological target: Receptor tyrosine-protein kinase erbB-2 (Homo sapiens) (UniProt P04626); assay: Inhibition of ErbB2 (unknown origin) at 10 uM
[7] = biological target: Interleukin-1 receptor-associated kinase 4 (Homo sapiens) (UniProt Q9NWZ3); assay: Inhibition of IRAK4 (unknown origin) at 10 uM
HT-29 [8] = assay: Synergistic cytotoxicity against human HT-29 cells assessed as reduction in cell viability by measuring combination index at 1:1 compound to GSK2126458 ratio after 48 hrs by MTT assay; format: functional
[9] = biological target: Serine/threonine-protein kinase PAK 1 (Homo sapiens) (UniProt Q13153); assay: Inhibition of PAK1 (unknown origin) at 10 uM
[10] = biological target: Serine/threonine-protein kinase PLK3 (Homo sapiens) (UniProt Q9H4B4); assay: Inhibition of PLK3 (unknown origin) at 10 uM
[11] = biological target: Protein kinase C alpha type (Homo sapiens) (UniProt P17252); assay: Inhibition of PKCalpha (unknown origin) at 10 uM
[12] = biological target: Rho-associated protein kinase 2 (Homo sapiens) (UniProt O75116); assay: Inhibition of ROCK2 (unknown origin) at 10 uM
[13] = biological target: Mast/stem cell growth factor receptor Kit (Homo sapiens) (UniProt P10721); assay: Inhibition of c-KIT (unknown origin) at 10 uM
HCT-116 [14] = assay: Induction of apoptosis in human HCT116 cells at 1 uM after 72 hrs by Annexin V-FITC/propidium iodide staining-based flow cytometric analysis; format: functional, cell-based
HCT-116 [15] = assay: Synergistic cytotoxicity against human HCT116 cells assessed as reduction in cell viability by measuring combination index at 1:1 compound to GSK2126458 ratio after 48 hrs by MTT assay; format: functional
HT-29 [16] = assay: Synergistic cytotoxicity against human HT-29 cells assessed as reduction in cell viability by measuring combination index at 1:1 compound to lonafarnib ratio after 48 hrs by MTT assay; format: functional
[17] = biological target: High affinity nerve growth factor receptor (Homo sapiens) (UniProt P04629); assay: Inhibition of TrkA (unknown origin) at 10 uM
[18] = biological target: Mitogen-activated protein kinase 8 (Homo sapiens) (UniProt P45983); assay: Inhibition of JNK1 (unknown origin) at 10 uM
HCT-116 [19] = assay: Inhibition of cytokinesis in human HCT116 cells at 100 nM after 24 hrs by propidium iodide/RNase staining-based flow cytometric analysis; format: functional, cell-based
HCT-116 [20] = assay: Induction of apoptosis in human HCT116 cells at 100 nM after 72 hrs by Annexin V-FITC staining-based flow cytometric analysis; format: functional, cell-based
[21] = biological target: Tyrosine-protein kinase ABL1 (Homo sapiens) (UniProt P00519); assay: Inhibition of ABL (unknown origin) at 10 uM
[22] = biological target: Insulin receptor (Homo sapiens) (UniProt P06213); assay: Inhibition of INSR (unknown origin) at 10 uM
HCT-116 [23] = assay: Synergistic cytotoxicity against human HCT116 cells assessed as reduction in cell viability by measuring combination index at 1:1 compound to erlotinib ratio after 48 hrs by MTT assay; format: functional
[24] = biological target: Death-associated protein kinase 3 (Homo sapiens) (UniProt O43293); assay: Inhibition of ZIPK (unknown origin) at 10 uM
[25] = biological target: Hepatocyte growth factor receptor (Homo sapiens) (UniProt P08581); assay: Inhibition of c-MET (unknown origin) at 10 uM
[26] = biological target: Inhibitor of nuclear factor kappa-B kinase subunit beta (Homo sapiens) (UniProt O14920); assay: Inhibition of IKKbeta (unknown origin) at 10 uM
[27] = biological target: Platelet-derived growth factor receptor beta (Homo sapiens) (UniProt P09619); assay: Inhibition of PDGFRbeta (unknown origin) at 10 uM
[28] = biological target: Mitogen-activated protein kinase 3 (Homo sapiens) (UniProt P27361); assay: Inhibition of ERK1 (unknown origin) at 10 uM
HT-29 [29] = assay: Synergistic cytotoxicity against human HT-29 cells assessed as reduction in cell viability by measuring combination index at 1:1 compound to dasatinib ratio after 48 hrs by MTT assay; format: functional
[30] = biological target: Tyrosine-protein kinase receptor UFO (Homo sapiens) (UniProt P30530); assay: Inhibition of AXL (unknown origin) at 10 uM
[31] = biological target: CDK2/Cyclin A2 (Homo sapiens) (UniProt P24941+P20248); assay: Inhibition of CDK2/cyclin A (unknown origin) at 10 uM; format: protein-complex assay
HCT-15 = assay: Cytotoxicity against human HCT15 cells assessed as reduction in cell viability after 48 hrs by MTT assay; format: functional, cell-based; details: HCT-15, 48 h
[32] = biological target: Serine/threonine-protein kinase Chk1 (Homo sapiens) (UniProt O14757); assay: Inhibition of CHK1 (unknown origin) at 10 uM
[33] = biological target: Vascular endothelial growth factor receptor 2 (Homo sapiens) (UniProt P35968); assay: Inhibition of VEGFR2 (unknown origin) at 10 uM
[34] = biological target: Serine/threonine-protein kinase mTOR (Homo sapiens) (UniProt P42345); assay: Inhibition of mTOR (unknown origin) at 10 uM
[35] = biological target: Tyrosine-protein kinase SYK (Homo sapiens) (UniProt P43405); assay: Inhibition of SYK (unknown origin) at 10 uM
HCT-116 [36] = assay: Synergistic cytotoxicity against human HCT116 cells assessed as reduction in cell viability by measuring combination index at 1:1 compound to trichostatin A ratio after 48 hrs by MTT assay; format: functional
[37] = biological target: Tyrosine-protein kinase JAK3 (Homo sapiens) (UniProt P52333); assay: Inhibition of JAK3 (unknown origin) at 10 uM
Tyrosine-protein kinase JAK3 (Homo sapiens), sequence (P52333 whole entry): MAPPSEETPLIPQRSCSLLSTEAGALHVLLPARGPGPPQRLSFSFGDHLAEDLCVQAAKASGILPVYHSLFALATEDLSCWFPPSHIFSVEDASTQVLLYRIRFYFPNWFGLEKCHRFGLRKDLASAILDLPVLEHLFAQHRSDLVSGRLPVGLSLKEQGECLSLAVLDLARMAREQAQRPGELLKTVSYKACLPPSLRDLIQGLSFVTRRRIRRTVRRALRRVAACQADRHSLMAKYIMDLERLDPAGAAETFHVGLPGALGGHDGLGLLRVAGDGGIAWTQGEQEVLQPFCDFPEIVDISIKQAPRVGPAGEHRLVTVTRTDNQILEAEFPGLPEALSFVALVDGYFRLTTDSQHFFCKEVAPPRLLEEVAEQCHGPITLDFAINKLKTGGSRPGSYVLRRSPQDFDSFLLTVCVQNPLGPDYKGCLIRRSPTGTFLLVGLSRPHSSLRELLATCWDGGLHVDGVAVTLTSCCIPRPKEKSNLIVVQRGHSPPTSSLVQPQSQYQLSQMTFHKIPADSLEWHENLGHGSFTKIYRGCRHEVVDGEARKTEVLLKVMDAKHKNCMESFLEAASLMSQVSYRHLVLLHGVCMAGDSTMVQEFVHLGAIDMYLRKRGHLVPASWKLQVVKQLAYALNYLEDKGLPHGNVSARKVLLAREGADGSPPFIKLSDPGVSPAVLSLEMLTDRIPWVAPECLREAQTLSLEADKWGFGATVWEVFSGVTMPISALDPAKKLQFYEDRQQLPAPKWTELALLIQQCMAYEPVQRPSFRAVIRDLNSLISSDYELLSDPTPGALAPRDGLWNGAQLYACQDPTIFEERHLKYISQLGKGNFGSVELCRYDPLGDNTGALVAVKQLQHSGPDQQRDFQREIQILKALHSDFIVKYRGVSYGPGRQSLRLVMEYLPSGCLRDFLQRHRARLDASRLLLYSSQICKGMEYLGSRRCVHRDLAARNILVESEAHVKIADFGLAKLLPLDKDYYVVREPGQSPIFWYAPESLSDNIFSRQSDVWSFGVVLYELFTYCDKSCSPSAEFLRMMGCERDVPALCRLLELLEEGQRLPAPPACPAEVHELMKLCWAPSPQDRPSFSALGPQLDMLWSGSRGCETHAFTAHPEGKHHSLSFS

Hepatocyte growth factor receptor (Homo sapiens), sequence (P08581 whole entry): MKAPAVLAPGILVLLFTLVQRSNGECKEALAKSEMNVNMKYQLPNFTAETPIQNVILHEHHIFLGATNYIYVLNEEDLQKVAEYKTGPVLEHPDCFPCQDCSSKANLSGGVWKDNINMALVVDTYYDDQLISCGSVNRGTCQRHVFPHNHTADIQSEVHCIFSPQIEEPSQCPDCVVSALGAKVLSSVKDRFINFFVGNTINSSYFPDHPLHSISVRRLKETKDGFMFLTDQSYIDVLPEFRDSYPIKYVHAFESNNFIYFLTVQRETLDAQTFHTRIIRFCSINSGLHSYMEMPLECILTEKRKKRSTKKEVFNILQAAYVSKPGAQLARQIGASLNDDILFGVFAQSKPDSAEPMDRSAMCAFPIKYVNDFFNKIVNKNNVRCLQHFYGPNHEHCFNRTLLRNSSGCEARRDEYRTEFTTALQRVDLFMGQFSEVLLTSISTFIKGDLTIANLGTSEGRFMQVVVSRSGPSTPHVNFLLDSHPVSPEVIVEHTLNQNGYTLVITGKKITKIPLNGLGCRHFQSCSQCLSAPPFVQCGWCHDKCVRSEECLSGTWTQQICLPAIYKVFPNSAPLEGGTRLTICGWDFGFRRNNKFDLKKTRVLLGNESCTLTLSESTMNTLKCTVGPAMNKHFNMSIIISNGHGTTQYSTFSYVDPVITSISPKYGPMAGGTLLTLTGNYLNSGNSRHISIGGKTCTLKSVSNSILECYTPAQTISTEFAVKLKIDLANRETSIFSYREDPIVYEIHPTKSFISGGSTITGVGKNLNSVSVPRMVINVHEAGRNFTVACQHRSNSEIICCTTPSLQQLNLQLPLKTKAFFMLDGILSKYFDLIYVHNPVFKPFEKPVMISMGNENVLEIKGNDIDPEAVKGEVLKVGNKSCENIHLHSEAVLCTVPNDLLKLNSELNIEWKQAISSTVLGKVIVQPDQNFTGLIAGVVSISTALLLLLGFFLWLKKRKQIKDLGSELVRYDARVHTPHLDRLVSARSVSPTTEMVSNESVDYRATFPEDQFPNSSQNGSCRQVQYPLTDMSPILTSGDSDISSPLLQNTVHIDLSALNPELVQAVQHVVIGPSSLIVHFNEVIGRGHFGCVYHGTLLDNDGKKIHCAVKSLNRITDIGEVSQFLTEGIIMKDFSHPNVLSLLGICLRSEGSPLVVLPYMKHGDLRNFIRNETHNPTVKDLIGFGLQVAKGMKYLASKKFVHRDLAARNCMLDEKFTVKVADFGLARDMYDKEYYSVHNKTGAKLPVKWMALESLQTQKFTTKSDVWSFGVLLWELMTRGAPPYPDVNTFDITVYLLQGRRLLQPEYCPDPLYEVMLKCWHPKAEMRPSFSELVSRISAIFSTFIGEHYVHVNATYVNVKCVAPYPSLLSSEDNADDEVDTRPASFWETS
Tyrosine-protein kinase receptor UFO (Homo sapiens), sequence (P30530 whole entry): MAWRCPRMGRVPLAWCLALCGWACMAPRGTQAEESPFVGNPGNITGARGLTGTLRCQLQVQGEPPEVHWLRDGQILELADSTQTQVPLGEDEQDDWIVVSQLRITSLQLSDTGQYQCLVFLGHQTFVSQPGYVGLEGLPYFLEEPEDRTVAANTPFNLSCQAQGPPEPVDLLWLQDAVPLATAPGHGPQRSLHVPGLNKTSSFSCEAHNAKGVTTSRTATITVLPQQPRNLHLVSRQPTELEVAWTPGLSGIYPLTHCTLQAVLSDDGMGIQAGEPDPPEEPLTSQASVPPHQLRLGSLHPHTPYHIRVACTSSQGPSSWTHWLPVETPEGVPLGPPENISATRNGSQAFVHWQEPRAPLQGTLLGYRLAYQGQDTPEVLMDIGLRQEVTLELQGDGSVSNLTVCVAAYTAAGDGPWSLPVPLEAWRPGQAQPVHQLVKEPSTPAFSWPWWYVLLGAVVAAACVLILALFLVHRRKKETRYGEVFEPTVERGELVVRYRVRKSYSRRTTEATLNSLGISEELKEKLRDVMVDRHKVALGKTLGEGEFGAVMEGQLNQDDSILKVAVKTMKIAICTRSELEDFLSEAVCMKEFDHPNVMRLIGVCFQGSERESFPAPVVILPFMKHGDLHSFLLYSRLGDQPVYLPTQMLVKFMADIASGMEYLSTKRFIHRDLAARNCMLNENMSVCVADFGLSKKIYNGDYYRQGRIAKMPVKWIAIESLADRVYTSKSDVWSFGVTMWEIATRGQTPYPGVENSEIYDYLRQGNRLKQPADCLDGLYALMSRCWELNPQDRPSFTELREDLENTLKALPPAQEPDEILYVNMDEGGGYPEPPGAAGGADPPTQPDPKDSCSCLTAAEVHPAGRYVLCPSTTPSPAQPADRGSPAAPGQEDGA
RAC-alpha serine/threonine-protein kinase (Homo sapiens), sequence (P31749 whole entry): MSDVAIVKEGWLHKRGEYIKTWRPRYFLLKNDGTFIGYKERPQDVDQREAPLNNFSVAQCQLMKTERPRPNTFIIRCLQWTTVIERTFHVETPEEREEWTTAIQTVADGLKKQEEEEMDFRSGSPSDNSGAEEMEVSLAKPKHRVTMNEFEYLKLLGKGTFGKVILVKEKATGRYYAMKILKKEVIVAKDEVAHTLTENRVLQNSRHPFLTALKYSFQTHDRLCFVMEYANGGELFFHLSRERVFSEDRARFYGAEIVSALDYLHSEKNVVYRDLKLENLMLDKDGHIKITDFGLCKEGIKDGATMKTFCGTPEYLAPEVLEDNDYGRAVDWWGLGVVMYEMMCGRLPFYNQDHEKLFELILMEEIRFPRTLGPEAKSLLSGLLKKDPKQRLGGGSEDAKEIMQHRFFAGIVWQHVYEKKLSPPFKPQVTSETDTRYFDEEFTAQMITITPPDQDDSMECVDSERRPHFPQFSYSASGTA
Platelet-derived growth factor receptor beta (Homo sapiens), sequence (P09619 whole entry): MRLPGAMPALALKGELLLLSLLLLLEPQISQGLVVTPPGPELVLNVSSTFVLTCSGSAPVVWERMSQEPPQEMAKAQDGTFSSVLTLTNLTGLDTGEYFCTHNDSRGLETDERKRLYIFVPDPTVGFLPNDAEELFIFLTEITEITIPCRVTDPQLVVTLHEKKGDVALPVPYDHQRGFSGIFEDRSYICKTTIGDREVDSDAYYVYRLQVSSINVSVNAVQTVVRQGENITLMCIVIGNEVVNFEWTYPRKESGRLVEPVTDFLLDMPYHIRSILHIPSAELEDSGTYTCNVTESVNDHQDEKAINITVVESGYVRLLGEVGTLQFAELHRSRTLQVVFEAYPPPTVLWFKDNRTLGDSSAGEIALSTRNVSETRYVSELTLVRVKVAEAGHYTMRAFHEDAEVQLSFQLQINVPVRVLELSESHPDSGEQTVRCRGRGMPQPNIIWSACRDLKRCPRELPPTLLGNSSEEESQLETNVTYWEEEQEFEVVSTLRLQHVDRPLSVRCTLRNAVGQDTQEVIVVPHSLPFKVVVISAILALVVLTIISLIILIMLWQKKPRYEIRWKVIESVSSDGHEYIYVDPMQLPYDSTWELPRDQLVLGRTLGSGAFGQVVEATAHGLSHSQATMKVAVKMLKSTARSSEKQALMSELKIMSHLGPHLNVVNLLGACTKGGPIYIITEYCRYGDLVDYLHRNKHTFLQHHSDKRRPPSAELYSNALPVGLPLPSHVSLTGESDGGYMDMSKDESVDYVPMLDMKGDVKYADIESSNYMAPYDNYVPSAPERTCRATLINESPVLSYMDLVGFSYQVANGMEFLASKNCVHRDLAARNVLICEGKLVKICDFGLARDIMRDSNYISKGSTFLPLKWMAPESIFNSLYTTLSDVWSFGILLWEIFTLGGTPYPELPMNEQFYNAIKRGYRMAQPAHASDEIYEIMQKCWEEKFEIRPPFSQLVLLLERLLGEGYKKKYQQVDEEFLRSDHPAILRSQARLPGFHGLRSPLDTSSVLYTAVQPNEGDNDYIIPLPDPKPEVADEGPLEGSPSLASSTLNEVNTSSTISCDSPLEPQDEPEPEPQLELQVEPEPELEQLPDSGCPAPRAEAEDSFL

CNC(=O)Nc1sc2c(C(C)C)cc(NS(=O)(=O)c3cccs3)cc2c1C(N)=O
inhibition [1]: 13.6% | CI (HT-29 [2]): 0.075 | CI (HT-29 [3]): 0.102 | inhibition [4]: 95.7% | inhibition [5]: 17.3% | inhibition [6]: 35.9% | inhibition [7]: 16% | CI (HT-29 [8]): 1.044 | inhibition [9]: 26.7% | inhibition [10]: 78.7% | inhibition [11]: 21.4% | inhibition [12]: 11.8% | inhibition [13]: 71.6% | Activity (HCT-116 [14]): Active | CI (HCT-116 [15]): 1.042 | CI (HT-29 [16]): 0.198 | inhibition [17]: 95.3% | inhibition [18]: 12.2% | Cytokinesis inhibition (active/inactive call) (HCT-116 [19]): Active | Activity (HCT-116 [20]): Active | inhibition [21]: 100% | inhibition [22]: 28.5% | CI (HCT-116 [23]): 0.25 | inhibition [24]: 12.9% | inhibition [25]: 47.4% | inhibition [26]: 16.2% | inhibition [27]: 88% | inhibition [28]: 12.4% | CI (HT-29 [29]): 0.073 | inhibition [30]: 112% | inhibition [31]: 33.9% | IC50 (HCT-15): 620 nM | inhibition [32]: 62.8% | inhibition [33]: 109% | inhibition [34]: 8.62% | inhibition [35]: 16.6% | CI (HCT-116 [36]): 0.195 | inhibition [37]: 99.6%
